Reference: ChEMBL document CHEMBL5316331, “Modulating Cytotoxicity with Lego-like Chemistry: Upgrading Mitochondriotropic Antioxidants with Prototypical Cationic Carrier Bricks” (J Med Chem, 2023)
Active and inactive are the calls of the source. No cut-off for these calls is given here.

Experiments:
[1] = system: SH-SY5Y; assay: Antioxidant activity against human SH-SY5Y cells assessed as increase in basal OCR at 10 uM incubated for 24 hrs followed by addition of oligomycin/FCCP/antimycin A /rotenone by Cell Mito stress assay based seahorse XF96 flux analyzer; format: functional
[2] = Cytotoxicity against human HepG2 cells assessed as cell viability incubated for 24 hrs; format: toxicity, cell-based; settings: read-out: Activity
[3] = Drug uptake in C57BL/6J mouse liver mitochondria at 5 uM in presence of rotenone by UPLC analysis; format: ADME
[4] = system: SH-SY5Y; assay: Antioxidant activity against human SH-SY5Y cells assessed as increase in ATP production-linked respiration at 10 uM incubated for 24 hrs followed by addition of oligomycin/FCCP/antimycin A /rotenone by Cell Mito stress assay based seahorse XF96 flux analyzer; format: functional
[5] = Drug uptake in C57BL/6J mouse liver mitochondria at 5 uM in presence of FCCP by UPLC analysis; format: ADME
[6] = Cytotoxicity against human SH-SY5Y cells assessed as cell viability incubated for 24 hrs; format: toxicity, cell-based; settings: read-out: Activity
[7] = system: SH-SY5Y; assay: Antioxidant activity against human SH-SY5Y cells assessed as increase in basal respiration at 50 uM incubated for 24 hrs followed by addition of oligomycin/FCCP/antimycin A /rotenone by Cell Mito stress assay based seahorse XF96 flux analyzer; format: functional
[8] = system: SH-SY5Y; assay: Cytotoxicity against human SH-SY5Y cells assessed as increase in cell viability at 10 to 100 uM incubated for 24 hrs; format: toxicity, cell-based; settings: dose 10-100 µM
[9] = system: SH-SY5Y; assay: Neuroprotective activity against H2O2-induced human SH-SY5Y cells assessed as increase in cell viability at 50 uM preincubated for 30 mins followed by H2O2 addition and measured after 24 hrs by SRB assay; format: functional, cell-based; settings: time 24.5 hrs
[10] = system: SH-SY5Y; assay: Antioxidant activity against human SH-SY5Y cells assessed as increase in maximal respiration at 10 uM incubated for 24 hrs followed by addition of oligomycin/FCCP/antimycin A /rotenone by Cell Mito stress assay based seahorse XF96 flux analyzer; format: functional
[11] = system: SH-SY5Y; assay: Antioxidant activity against human SH-SY5Y cells assessed as increase in spare respiratory capacity at 10 uM incubated for 24 hrs followed by addition of oligomycin/FCCP/antimycin A /rotenone by Cell Mito stress assay based seahorse XF96 flux analyzer; format: functional
[12] = system: SH-SY5Y; assay: Antioxidant activity against human SH-SY5Y cells assessed as increase in basal respiration at 10 uM incubated for 24 hrs followed by addition of oligomycin/FCCP/antimycin A /rotenone by Cell Mito stress assay based seahorse XF96 flux analyzer; format: functional
[13] = system: SH-SY5Y; assay: Antioxidant activity against human SH-SY5Y cells assessed as increase in spare respiratory capacity at 50 uM incubated for 24 hrs followed by addition of oligomycin/FCCP/antimycin A /rotenone by Cell Mito stress assay based seahorse XF96 flux analyzer; format: functional
[14] = Drug uptake in C57BL/6J mouse liver mitochondria at 5 uM in presence of succinate by UPLC analysis; format: ADME
[15] = system: SH-SY5Y; assay: Cytotoxicity against human SH-SY5Y cells incubated for 48 hrs; format: toxicity, cell-based
[16] = system: SH-SY5Y; assay: Antioxidant activity against human SH-SY5Y cells assessed as increase in ATP production-linked respiration at 50 uM incubated for 24 hrs followed by addition of oligomycin/FCCP/antimycin A /rotenone by Cell Mito stress assay based seahorse XF96 flux analyzer; format: functional
[17] = system: SH-SY5Y; assay: Antioxidant activity against human SH-SY5Y cells assessed as increase in maximal respiration at 50 uM incubated for 24 hrs followed by addition of oligomycin/FCCP/antimycin A /rotenone by Cell Mito stress assay based seahorse XF96 flux analyzer; format: functional
[18] = system: SH-SY5Y; assay: Neuroprotective activity against H2O2-induced human SH-SY5Y cells assessed as increase in cell viability at 10 uM preincubated for 30 mins followed by H2O2 addition and measured after 24 hrs by SRB assay; format: functional, cell-based; settings: time 24.5 hrs
[19] = system: HepG2; assay: Cytotoxicity against human HepG2 cells assessed as increase in cell viability at 10 to 100 uM incubated for 24 hrs; format: toxicity, cell-based; settings: hepg2, 24 h, dose 10-100 µM
[20] = system: SH-SY5Y; assay: Antioxidant activity against human SH-SY5Y cells assessed as increase in basal ECAR at 10 uM incubated for 24 hrs followed by addition of oligomycin/FCCP/antimycin A /rotenone by Cell Mito stress assay based seahorse XF96 flux analyzer; format: functional
[21] = system: SH-SY5Y; assay: Effect on cell death pathway in human SH-SY5Y cells assessed as increase in early apoptotic cells at 10 uM incubated for 24 hrs by Annexin V-FITC/PI staining based microscopy; format: functional
[22] = system: SH-SY5Y; assay: Effect on cell death pathway in human SH-SY5Y cells assessed as increase in late apoptotic cells at 10 uM incubated for 24 hrs by Annexin V-FITC/PI staining based microscopy; format: functional
[23] = system: SH-SY5Y; assay: Effect on cell mitochondrial mass in human SH-SY5Y cells assessed as reduction on mitochondrial mass at 10 uM incubated for 24 hrs by mito-tracker green dye based flow cytometry; format: functional; set-up: scale not given: the % may be the effect or the level left
[24] = system: SH-SY5Y; assay: Neuroprotective activity against tBHP-induced human SH-SY5Y cells assessed as increase in cell viability at 10 uM preincubated for 30 mins followed by t-BHP addition at 15 uM and measured after 24 hrs by neutral dye uptake assay relative to control; format: functional; settings: time 24.5 hrs
[25] = system: HepG2; assay: Cytotoxicity against human HepG2 cells assessed as decrease in lysosomal activity at > 10 uM incubated for 24 hrs by resazurin reduction assay; format: toxicity, cell-based; settings: hepg2, 24 h
[26] = system: SH-SY5Y; assay: Cytotoxicity against human SH-SY5Y cells assessed as decrease in lysosomal activity at > 25 uM incubated for 24 hrs by neutral red uptake assay; format: toxicity, cell-based
[27] = system: SH-SY5Y; assay: Effect on cell death pathway in human SH-SY5Y cells assessed as increase in late apoptotic cells at 50 uM incubated for 24 hrs by Annexin V-FITC/PI staining based microscopy; format: functional
[28] = system: SH-SY5Y; assay: Cytotoxicity against human SH-SY5Y cells assessed as decrease in lysosomal activity at 1 to 100 uM incubated upto 48 hrs by resazurin reduction assay; format: toxicity, cell-based; settings: dose 1-100 µM
[29] = system: SH-SY5Y; assay: Cytotoxicity against human SH-SY5Y cells assessed as decrease in cellular metabolic activity at 1 to 100 uM incubated upto 48 hrs by resazurin reduction assay; format: toxicity, cell-based; settings: dose 1-100 µM
[30] = system: SH-SY5Y; assay: Induction of mitochondrial membrane polarization in human SH-SY5Y cells at 50 uM incubated for 24 hrs by JC-1 staining based fluorescence assay; format: functional
[31] = system: SH-SY5Y; assay: Antioxidant activity against human SH-SY5Y cells assessed as increase in ECAR at 10 uM incubated for 24 hrs followed by addition of oligomycin/FCCP/antimycin A /rotenone by Cell Mito stress assay based seahorse XF96 flux analyzer; format: functional
[32] = system: SH-SY5Y; assay: Effect on cell morphology in human SH-SY5Y cells assessed as reduction in cell body at 10 uM incubated for 24 hrs by Phase-contrast microscopy; format: functional, cell-based
[33] = system: SH-SY5Y; assay: Antioxidant activity against human SH-SY5Y cells assessed as effect on intracellular ATP level at 10 uM incubated for 24 hrs followed by addition of oligomycin/FCCP/antimycin A /rotenone by Cell Mito stress assay based seahorse XF96 flux analyzer; format: functional
[34] = system: HepG2; assay: Cytotoxicity against human HepG2 cells assessed as decrease in cellular metabolic activity at > 10 uM incubated for 24 hrs by resazurin reduction assay; format: toxicity, cell-based; settings: hepg2, 24 h
[35] = system: SH-SY5Y; assay: Neuroprotective activity against tBHP-induced human SH-SY5Y cells assessed as increase in cell viability at 10 uM preincubated for 30 mins followed by t-BHP addition and measured after 24 hrs by SRB assay; format: functional, cell-based; settings: time 24.5 hrs
[36] = Dissociation constant, pKa of the compound by UV-vis spectrophotometric analysis; format: physicochemical
[37] = system: SH-SY5Y; assay: Effect on cell morphology in human SH-SY5Y cells assessed as reduction in neurite at 50 uM incubated for 24 hrs by Phase-contrast microscopy; format: functional, cell-based
[38] = system: SH-SY5Y; assay: Cytotoxicity against human SH-SY5Y cells assessed as decrease in cell mass at > 25 uM incubated for 24 hrs by SRB assay; format: toxicity, cell-based
[39] = system: HepG2; assay: Cytotoxicity against human HepG2 cells assessed as decrease in lysosomal activity at > 3.1 uM incubated for 24 hrs by resazurin reduction assay; format: toxicity, cell-based; settings: hepg2, 24 h
[40] = system: SH-SY5Y; assay: Antioxidant activity against human SH-SY5Y cells assessed as increase in proton leak-associated respiration at 10 uM incubated for 24 hrs followed by addition of oligomycin/FCCP/antimycin A /rotenone by Cell Mito stress assay based seahorse XF96 flux analyzer; format: functional
[41] = system: SH-SY5Y; assay: Effect on cell death pathway in human SH-SY5Y cells assessed as increase in necrotic cells at 10 uM incubated for 24 hrs by Annexin V-FITC/PI staining based microscopy; format: functional
[42] = system: HepG2; assay: Cytotoxicity against human HepG2 cells assessed as decrease in cell mass at > 6.25 uM incubated for 24 hrs by SRB assay; format: toxicity, cell-based; settings: hepg2, 24 h
[43] = system: SH-SY5Y; assay: Effect on cell morphology in human SH-SY5Y cells assessed as reduction in neurite at 10 uM incubated for 24 hrs by Phase-contrast microscopy; format: functional, cell-based
[44] = system: SH-SY5Y; assay: Effect on cell morphology in human SH-SY5Y cells assessed as reduction in cell body at 50 uM incubated for 24 hrs by Phase-contrast microscopy; format: functional, cell-based
[45] = system: SH-SY5Y; assay: Antioxidant activity against human SH-SY5Y cells assessed as effect on ATP production-linked respiration at 10 uM incubated for 24 hrs followed by addition of oligomycin/FCCP/antimycin A /rotenone by Cell Mito stress assay based seahorse XF96 flux analyzer; format: functional
[46] = system: HepG2; assay: Cytotoxicity against human HepG2 cells assessed as decrease in cellular metabolic activity at > 3.1 uM incubated for 24 hrs by resazurin reduction assay; format: toxicity, cell-based; settings: hepg2, 24 h
[47] = system: SH-SY5Y; assay: Induction of mitochondrial membrane polarization in human SH-SY5Y cells at 10 uM incubated for 24 hrs by JC-1 staining based fluorescence assay; format: functional
[48] = system: SH-SY5Y; assay: Cytotoxicity against human SH-SY5Y cells assessed as decrease in lysosomal activity at > 50 uM incubated for 24 hrs by neutral red uptake assay; format: toxicity, cell-based
[49] = system: SH-SY5Y; assay: Neuroprotective activity against tBHP-induced human SH-SY5Y cells assessed as increase in cell viability at 10 uM preincubated for 30 mins followed by t-BHP addition at 30 uM and measured after 24 hrs by neutral dye uptake assay relative to control; format: functional; settings: time 24.5 hrs
[50] = system: SH-SY5Y; assay: Effect on cell death pathway in human SH-SY5Y cells assessed as increase in necrotic cells at 50 uM incubated for 24 hrs by Annexin V-FITC/PI staining based microscopy; format: functional
[51] = system: SH-SY5Y; assay: Effect on cell death pathway in human SH-SY5Y cells assessed as increase in early apoptotic cells at 50 uM incubated for 24 hrs by Annexin V-FITC/PI staining based microscopy; format: functional

CS(=O)(=O)[O-].Cc1cc[n+](CCCCCCCCCCNC(=O)/C=C/c2ccc(O)c(O)c2)cc1
Activity [1]: Active | viability at 24 h [2]: ≥ 85% | Drug uptake [3]: Not Active | Activity [4]: Active | Drug uptake [5]: Active | viability at 24 h [6]: ≥ 85% | Activity [7]: Active | Activity [8]: Non-Toxic | Activity [9]: inactive | Activity [10]: Active | Activity [11]: Active | Activity [12]: Active | Activity [13]: Active | Drug uptake [14]: ~ 25% | Activity [15]: Non-Toxic | Activity [16]: Active | Activity [17]: Active | Activity [18]: inactive | Activity [19]: Non-Toxic | Activity [20]: Active

CS(=O)(=O)[O-].O=C(/C=C/c1ccc(O)c(O)c1)NCCCCCCCCCC[P+](c1ccccc1)(c1ccccc1)c1ccccc1
Drug uptake [3]: Not Active | Activity [21]: Active | Drug uptake [5]: Active | Activity [22]: Active | Activity [23]: 69.2% | Activity [24]: 95.1% | Activity [25]: Toxic | Activity [26]: Toxic | Activity [27]: Active | Activity [28]: Toxic | Activity [29]: Toxic | Activity [30]: 72.7% | Activity [31]: Active | Activity [32]: Active | Activity [33]: inactive | Activity [34]: Toxic | Activity [35]: Active | pKa [36]: 8.61 | Activity [37]: Active | Activity [38]: Toxic | Activity [39]: Toxic | Activity [40]: Active | Activity [41]: Active | Activity [42]: Toxic | Activity [43]: Active | Drug uptake [14]: ~ 25% | Activity [44]: Active | Activity [45]: inactive | Activity [46]: Toxic | Activity [47]: 124.8% | Activity [48]: Toxic | Activity [49]: 54.9% | Activity [50]: Active | Activity [18]: inactive | Activity [51]: Active
